In data set [1] the target is T1, CYP3A4 (Homo sapiens, UniProt P08684).
T1 construct: from tissue; host or cells: human liver microsomes
The data set can be described thus: CYP3A4 Inhibition Assay. Type of data set: in vitro ADME. The conditions noted are these: liver microsomes, pH 7.4, probe midazolam (5 μM; formation of 1-OH-midazolam), human liver microsomal preparation, 10 μM inhibitor, 5 μM midazolam substrate. The procedure: Incubation samples are prepared by adding a human liver microsomal preparation to the test inhibitor (final concentrations 0.05 mg/mL protein, 10 μM inhibitor in 100 mM NaPO4, pH 7.4 buffer) and mixed. Samples are pre-incubated for approximately five minutes at 37° C. Following the pre-incubation period, the reaction is initiated with the addition of a solution containing NADPH and midazolam, as the enzyme substrate, (final concentration 1 mM NADPH, 5 μM midazolam). After addition of the NADPH solution, the samples are incubated for 3 min at approximately 37° C. Following the incubation period, the reaction is quenched by the addition of 50 μL of methanol (and an internal standard for chromatography) and the samples are mixed well. After quenching the reaction, the mixture is centrifuged at approximately 4000 rpm for 15 min at approximately 5° C. and analyzed by LC/MS analysis.
Samples are analyzed using HPLC/MS with gradient elution on short conventional C18 columns, (Loading Mobile Phase—95/5 Milli-Q H2O/methanol (v/v) with 1% acetic acid. Mobile Phase B—80/20 Milli-Q H2O/methanol (v/v) with 1% acetic acid. Mobile Phase C—5/95 Milli-Q H2O/methanol (v/v) with 1% acetic acid. Rinsing Mobile Phase—75/25 Milli-Q H2O/acetonitrile (v/v).
The samples are injected into a Mass Spectral Analyzer for Selected Ion Monitoring (SIM) at a mass of 342.1 (1-OH-midazolam) and 346.1 (α-hydroxymidazolam-d4 internal standard) using Turbolon Spray under positive conditions. Data are reported as % inhibition of the formation of 1-OH-midazolam in the presence of an inhibitor concentration of 10 μM.
In general terms: Liver microsomes are a subcellular fraction often used to study metabolism.

Data set [2] deals with Gli1 transcript in Daoy cells stimulated with Shh conditioned media. The experiment in a line: Functional assay for measuring the inhibition of Gli1 in Daoy cells (bDNA). Type of data set: cell-based. The conditions noted are these: Homo sapiens; Daoy cells treated with Shh-CM, 24 hours incubation with compound, Gli1 transcript by bDNA luminescence. The procedure:
Biological activity is determined using a functional assay in Daoy neuronal cancer cells and measures levels of Gli1 ribonucleic acid via a bDNA (branched deoxyribonucleic acid) assay system (Panomics, Inc., Fremont, Calif.). Gli was originally discovered in a Glioblastoma cell line and encodes a zinc finger protein that is activated by Shh signaling. The maximum response is obtained by inducing Gli1 transcription in the Daoy cells with conditioned medium (human embryonic kidney, HEK-293 cells stably expressing recombinant Shh) for 24 hours and then measuring the amount of stimulated Gli1 transcript. […]
The bDNA assay system utilizes the technology of branched-chain DNA to allow amplification of a target ribonucleic acid (transcript). […] The addition of a chemilumigenic substrate during the amplification step allows for detection using luminescence. […]
Daoy cells are grown to confluency in tissue culture T225-flasks in Daoy growth media containing Minimum Essential Medium (MEM) plus 10% Fetal Bovine Serum (FBS) with […] non-essential amino acids and 1 mM sodium pyruvate. The cells are removed from the T225-flasks using trypsin ethylenediaminetetraacetic acid (EDTA), centrifuged, resuspended in media, and then counted. […]

Counter-ions that a name gives are not always drawn. Bounds are passed on as bounds.

T1 sequence (P08684 whole entry): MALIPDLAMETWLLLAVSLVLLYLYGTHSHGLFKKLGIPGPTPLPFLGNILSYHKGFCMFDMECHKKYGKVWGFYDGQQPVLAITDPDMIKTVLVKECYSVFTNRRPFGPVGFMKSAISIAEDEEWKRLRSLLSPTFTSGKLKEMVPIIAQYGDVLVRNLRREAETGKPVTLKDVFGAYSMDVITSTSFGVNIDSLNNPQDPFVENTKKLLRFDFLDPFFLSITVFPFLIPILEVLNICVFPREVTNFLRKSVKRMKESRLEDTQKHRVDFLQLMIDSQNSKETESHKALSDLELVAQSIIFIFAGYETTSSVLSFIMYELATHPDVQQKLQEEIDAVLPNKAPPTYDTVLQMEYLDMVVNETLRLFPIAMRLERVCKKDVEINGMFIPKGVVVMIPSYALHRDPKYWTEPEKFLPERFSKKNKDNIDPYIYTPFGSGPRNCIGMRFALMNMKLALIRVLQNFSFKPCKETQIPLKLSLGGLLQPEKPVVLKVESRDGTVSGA

The inhibition is the percentage by which the read-out fell short of the control. A low value points to little suppression. Consider `C[C@H]1CN(c2nnc(-c3ccc(C#N)cc3)c3ccccc23)CCN1C(=O)Nc1ccc(F)cc1F` [Example 26, (S)-4-(4-(4-Cyanophenyl)phthalazin-1-yl)-N-(2,4-difluorophenyl)-2-methylpiperazine-1-carboxamide hydrochloride], for which the inhibition at 3 min, 10 μM in data set [1] is less than 45%.
Same read-out and setting: the same measure for `CC[C@H]1CN(c2nnc(-c3ccc(F)cc3)c3ccccc23)CCN1C(=O)Nc1ccc(F)cc1C(F)(F)F` [Example 87, (S)-2-Ethyl-N-(4-fluoro-2-(trifluoromethyl)phenyl)-4-(4-(4-fluorophenyl)phthalazin-1-yl)piperazine-1-carboxamide hydrochloride]: less than 45%; for `C[C@H]1CN(C(=O)Nc2ccc(F)cc2C(F)(F)F)CCN1c1nnc(-c2ccccc2)c2ccccc12` [Example 69, (S)-N-(4-Fluoro-2-(trifluoromethyl)phenyl)-3-methyl-4-(4-phenylphthalazin-1-yl)piperazine-1-carboxamide hydrochloride]: less than 45%.
As to `C[C@H]1CN(C(=O)Nc2ccc(F)cc2C(F)(F)F)CCN1c1nnc(-c2ccc(C#N)cc2)c2ccccc12` [Example 60, (S)-4-(4-(4-Cyanophenyl)phthalazin-1-yl)-N-(4-fluoro-2-(trifluoromethyl)phenyl)-3-methylpiperazine-1-carboxamide hydrochloride], the inhibition at 3 min, 10 μM in data set [1] was less than 45%.
Still for that read-out and setting: the same measure for `CC[C@H]1CN(c2nnc(-c3ccc(F)cc3)c3ccccc23)CCN1C(=O)Nc1ccc(F)cc1` [Example 88, (S)-2-Ethyl-N-(4-fluorophenyl)-4-(4-(4-fluorophenyl)phthalazin-1-yl)piperazine-1-carboxamide hydrochloride]: less than 45%; for `CC[C@H]1CN(c2nnc(-c3ccc(F)cc3)c3ccccc23)CCN1C(=O)Nc1ccc(F)cc1F` [Example 86, (S)-N-(2,4-Difluorophenyl)-2-ethyl-4-(4-(4-fluorophenyl)phthalazin-1-yl)piperazine-1-carboxamide hydrochloride]: less than 45%; for `C[C@H]1CN(c2nnc(-c3ccc(C(F)(F)F)cc3)c3ccccc23)CCN1C(=O)Nc1ccc(F)cc1F` [Example 47, (S)-N-(2,4-Difluorophenyl)-2-methyl-4-(4-(4-(trifluoromethyl)phenyl)phthalazin-1-yl)piperazine-1-carboxamide hydrochloride]: less than 45%.
Compound `C[C@H]1CN(C(=O)Nc2ccc(OC(F)(F)F)cc2)CCN1c1nnc(-c2ccc(F)cc2)c2ccccc12` [Example 48, (S)-4-(4-(4-Fluorophenyl)phthalazin-1-yl)-3-methyl-N-(4-(trifluoromethoxy)phenyl)piperazine-1-carboxamide hydrochloride] registered an inhibition at 3 min, 10 μM in data set [1] of less than 45%.
For `C[C@H]1CN(c2nnc(-c3ccc(F)cc3)c3ccccc23)CCN1C(=O)Nc1ccc(F)cc1C(F)(F)F` [Example 18, (S)-N-(4-Fluoro-2-(trifluoromethyl)phenyl)-4-(4-(4-fluorophenyl)phthalazin-1-yl)-2-methylpiperazine-1-carboxamide hydrochloride], the inhibition at 3 min, 10 μM in data set [1] is less than 45%.
The IC50 is the point on the concentration scale where inhibition reaches its midpoint. Take `C[C@H]1CN(C(=O)Nc2ccc(F)cc2)CCN1c1nnc(-c2ccc(F)cc2)c2ccccc12` [Example 2, (S)—N-(4-Fluorophenyl)-4-(4-(4-fluorophenyl)phthalazin-1-yl)-3-methylpiperazine-1-carboxamide hydrochloride]: in data set [2], the IC50 is roughly 0.42 nM.
In data set [1], `CC1CN(C(=O)Nc2ccc(OC(F)(F)F)cc2)CCN1c1nnc(-c2ccc(F)cc2)c2ccccc12` (racemic) [Example 6, (±)-4-(4-(4-Fluorophenyl)phthalazin-1-yl)-3-methyl-N-(4-(trifluoromethoxy)phenyl)piperazine-1-carboxamide hydrochloride] yielded an inhibition at 3 min, 10 μM of less than 45%.
As to `C[C@H]1CN(c2nnc(-c3ccc(C(F)(F)F)cc3)c3ccccc23)CCN1C(=O)Nc1ccc(F)cc1` [Example 45, (S)-N-(4-Fluorophenyl)-2-methyl-4-(4-(4-(trifluoromethyl)phenyl)phthalazin-1-yl)piperazine-1-carboxamide hydrochloride], the inhibition at 3 min, 10 μM in data set [1] is less than 45%.
